Patent US8759367B2, “Compounds and methods for the prevention and treatment of cancer” (The Wistar Institute, priority 2010, dated 2014)

Test system: GLI1-driven reporter activity mediated by exogenous SHH (Shh-light2 cells)
Assay: GLI-dependent firefly luciferase reporter assay in Shh-light2 cells treated with SHH
Type: cell-based
Settings: AKI0532 5, 2.5 or 1 μM in DMSO, alone (−SHH) or with SHH (+SHH), 2 days, FIG. 1
Protocol: Shh-light2 cells (3T3 clone stably transfected with a GLI-dependent firefly luciferase plasmid) were treated with carrier DMSO as control or AKI0532 (5, 2.5, or 1 μM in DMSO) either alone (−SHH) or in combination with SHH (+SHH) for 2 days.
For example, AKI0532 analogs shown in Table 1 can be subjected to a battery of tests that are commonly used to assess effects on SHH activity and to determine specificity. As exemplified herein for AKI0532, one screen involves examining the activation of the SHH pathway using the well-established cell line, SHH-Light2 cells. This cell line is a 3T3 clone that stably expresses a GLI-dependant firefly luciferase (Taipale, et al. (2000) Nature 406:1005-1009). […] Concentrations of each compound, ranging from 20 μM to 1 μM, can be tested. SHH-Light2 cells are seeded 24 hours prior to treatment. They were then cultured for an additional 48 hours in standard serum-containing media prior to analysis. GLI-binding site luciferase activities are measured using a commercially available luciferase reporter assay system. Treatment of SHH-Light2 cells with recombinant SHH (200 ng) results in strong induction of reporter activity. IC50 values are determined and are compared to that of AKI0532 in the same assay in order to assess which of the AKI0532 analogs have the highest levels of SHH inhibitory activity.

For `C[C@]12CCC(c3ccc(O)cc3)=CC1=CC[C@@]21Cc2ncccc2O1` [AKI0532], which “GLI1-driven reporter activity mediated by exogenous SHH” value is on record?
The value was “inhibits GLI1-driven reporter activity mediated by exogenous SHH”.
